Laboratory results as given in ChEMBL document CHEMBL1122254, “Sulfonyliminoimidazolidines. A new class of oral hypoglycemic agents. 1. 1-[[p-[2-(acylamino)ethyl]phenyl]sulfonyl]-2-iminoimidazolidines” (1983).

Columns and labels:
Format in all cases: functional
Rattus norvegicus [1] = test: Hypoglycemic activity by lowering blood glucose in normal rats by 50% after oral administration.
Rattus norvegicus [2] = test: Hypoglycemic activity by lowering blood glucose in normal rats by 20% after oral administration.
Rattus norvegicus [3] = test: Compound evaluated for hypoglycemic activity by lowering blood glucose in streptozotocin-diabetic rats by 20% after oral administration; Inactive(less than 10% blood sugar decrease)
Rattus norvegicus [4] = test: Hypoglycemic activity by lowering blood glucose in streptozotocin-diabetic rats by 20% after oral administration.
Rattus norvegicus [5] = test: Compound evaluated for hypoglycemic activity by lowering blood glucose in normal rats by 50% after oral administration (highest dose tested)
Rattus norvegicus [6] = test: Compound evaluated for hypoglycemic activity by lowering blood glucose in streptozotocin-diabetic rats by 20% after oral administration
Rattus norvegicus [7] = test: Compound evaluated for hypoglycemic activity by lowering blood glucose in streptozotocin-diabetic rats by 20% after oral administration (highest dose tested)

Structure (SMILES) | ED50 (Rattus norvegicus [1]) [µmol/kg] | ED20 (Rattus norvegicus [2]) [mmol/kg] | further results
CC1(C(=O)NCCc2ccc(S(=O)(=O)N3CCN(C4CCCCC4)C3=N)cc2)CC=CCC1 (stereo not drawn) | 170 | 0.053 | 
COc1ccc(Cl)cc1C(=O)NCCc1ccc(S(=O)(=O)NC(=O)NC2CCCCC2)cc1 [GLYBURIDE] | 20 | 0.004 | ED20 (Rattus norvegicus [3]): > 0.5 mmol/kg
C/C=C(/C)C(=O)NCCc1ccc(S(=O)(=O)N2CCN(C3CCCCC3)C2=N)cc1 | 17 | 0.0035 | 
N=C1N(C2CCCCC2)CCN1S(=O)(=O)c1ccc(CCNC(=O)CCNc2ccccc2)cc1 |  | 0.24 | ED20 (Rattus norvegicus [4]): 0.8 mmol/kg
CC1=CCC(C(=O)NCCc2ccc(S(=O)(=O)N3CCN(C4CCCCC4)C3=N)cc2)CC1 (stereo not drawn) | 910 | 0.11 | 
N=C1N(C2CCCCC2)CCN1S(=O)(=O)c1ccc(CCNC(=O)C(N)c2ccccc2)cc1 (stereo not drawn) | 76 | 0.029 | ED20 (Rattus norvegicus [3]): > 0.18 mmol/kg
CN(C)CC(=O)NCCc1ccc(S(=O)(=O)N2CCN(C3CCCCC3)C2=N)cc1 | 180 | 0.057 | 
N=C1N(C2CCCCC2)CCN1S(=O)(=O)c1ccc(CCNC(=O)c2cccs2)cc1 | 170 | 0.022 | 
COc1ccccc1C(=O)NCCc1ccc(S(=O)(=O)N2CCN(C3CCCCC3)C2=N)cc1 |  | 0.093 | ED50 (Rattus norvegicus [5]): > 830 µmol/kg
CSCC(=O)NCCc1ccc(S(=O)(=O)N2CCN(C3CCCCC3)C2=N)cc1 | 190 | 0.081 | 
COc1ccc(C(=O)NCCc2ccc(S(=O)(=O)N3CCN(C4CCCCC4)C3=N)cc2)cc1OC | 780 | 0.066 | 
CC(C)/C=C/C(=O)NCCc1ccc(S(=O)(=O)N2CCN(C3CCCCC3)C2=N)cc1 | 34 | 0.0096 | 
CCCC(=O)NCCc1ccc(S(=O)(=O)N2CCN(C3CCCCC3)C2=N)cc1 | 83 | 0.024 | ED20 (Rattus norvegicus [6]): 0.52 mmol/kg
N=C1N(C2CCCCC2)CCN1S(=O)(=O)c1ccc(CCNC(=O)Oc2ccccc2)cc1 | > 850 | 0.042 | 
N=C1N(C2CCCCC2)CCN1S(=O)(=O)c1ccc(CCNC(=O)c2ccc(Cl)c(Cl)c2)cc1 |  | 0.37 | ED50 (Rattus norvegicus [5]): > 760 µmol/kg
N=C1N(C2CCCCC2)CCN1S(=O)(=O)c1ccc(CCNC(=O)c2ccccc2Cl)cc1 | 230 | 0.023 | 
CSc1ccccc1C(=O)NCCc1ccc(S(=O)(=O)N2CCN(C3CCCCC3)C2=N)cc1 | 620 | 0.064 | 
N=C1N(C2CCCCC2)CCN1S(=O)(=O)c1ccc(CCNC(=S)Nc2ccccc2)cc1 | 630 | 0.063 | 
CCCCN(C)C(=O)NCCc1ccc(S(=O)(=O)N2CCN(C3CCCCC3)C2=N)cc1 | 320 | 0.054 | 
COCCC(=O)NCCc1ccc(S(=O)(=O)N2CCN(C3CCCCC3)C2=N)cc1 | 220 | 0.033 | 
N=C1N(C2CCCCC2)CCN1S(=O)(=O)c1ccc(CCNC(=S)NC2CCCCC2)cc1 |  | 0.16 | ED50 (Rattus norvegicus [5]): > 820 µmol/kg
CCCOCC(=O)NCCc1ccc(S(=O)(=O)N2CCN(C3CCCCC3)C2=N)cc1 | 350 | 0.1 | 
CC[S+]([O-])CC(=O)NCCc1ccc(S(=O)(=O)N2CCN(C3CCCCC3)C2=N)cc1 (stereo not drawn) | 240 | 0.074 | ED20 (Rattus norvegicus [4]): 0.85 mmol/kg
N=C1N(C2CCCCC2)CCN1S(=O)(=O)c1ccc(CCNC(=O)C2CC=CCC2)cc1 (stereo not drawn) | 15 | 0.0044 | ED20 (Rattus norvegicus [4]): 0.39 mmol/kg

Structure (SMILES) | ED50 (Rattus norvegicus [1]) [µmol/kg] | ED20 (Rattus norvegicus [2]) [mmol/kg] | further results
N=C1N(C2CCCCC2)CCN1S(=O)(=O)c1ccc(CCNC(=O)c2ccco2)cc1 | 160 | 0.013 | ED20 (Rattus norvegicus [4]): 0.22 mmol/kg
Cc1cnc(C(=O)NCCc2ccc(S(=O)(=O)N3CCN(C4CCCCC4)C3=N)cc2)cn1 | 100 | 0.01 | ED20 (Rattus norvegicus [7]): > 0.61 mmol/kg
Cc1ccccc1C(=O)NCCc1ccc(S(=O)(=O)N2CCN(C3CCCCC3)C2=N)cc1 |  | 0.022 | ED50 (Rattus norvegicus [5]): > 850 µmol/kg
CC(C(=O)NCCc1ccc(S(=O)(=O)N2CCN(C3CCCCC3)C2=N)cc1)N(C)C (stereo not drawn) | 62 | 0.024 | 
N=C1N(C2CCCCC2)CCN1S(=O)(=O)c1ccc(CCNC(=O)C2CC2)cc1 | 150 | 0.034 | 
CC(C)CC(=O)NCCc1ccc(S(=O)(=O)N2CCN(C3CCCCC3)C2=N)cc1 | 150 | 0.046 | 
N=C1N(C2CCCCC2)CCN1S(=O)(=O)c1ccc(CCNC(=O)CCC2CCC2)cc1 | 200 | 0.052 | 
COc1ccc(Cl)cc1C(=O)NCCc1ccc(S(=O)(=O)N2CCN(C3CCCCC3)C2=N)cc1 |  | 0.12 | ED50 (Rattus norvegicus [5]): > 770 µmol/kg
C/C=C/C(=O)NCCc1ccc(S(=O)(=O)N2CCN(C3CCCCC3)C2=N)cc1 | 9.6 | 0.0028 | ED20 (Rattus norvegicus [4]): 0.18 mmol/kg
CCS(=O)(=O)CC(=O)NCCc1ccc(S(=O)(=O)N2CCN(C3CCCCC3)C2=N)cc1 | 530 | 0.11 | ED20 (Rattus norvegicus [6]): 0.83 mmol/kg
CCCCC(=O)NCCc1ccc(S(=O)(=O)N2CCN(C3CCCCC3)C2=N)cc1 | 120 | 0.035 | 
CCSCC(=O)NCCc1ccc(S(=O)(=O)N2CCN(C3CCCCC3)C2=N)cc1 | 200 | 0.055 | ED20 (Rattus norvegicus [4]): 0.57 mmol/kg
CC(N)C(=O)NCCc1ccc(S(=O)(=O)N2CCN(C3CCCCC3)C2=N)cc1 (stereo not drawn) | 160 | 0.059 | ED20 (Rattus norvegicus [4]): 0.46 mmol/kg
CCOC(=O)NCCc1ccc(S(=O)(=O)N2CCN(C3CCCCC3)C2=N)cc1 | 170 | 0.035 | 
N=C1N(C2CCCCC2)CCN1S(=O)(=O)c1ccc(CCNC(=O)CCN)cc1 | 370 | 0.065 | ED20 (Rattus norvegicus [4]): 0.76 mmol/kg
N=C1N(C2CCCCC2)CCN1S(=O)(=O)c1ccc(CCNC(=S)NC2CCCC2)cc1 | 210 | 0.05 | 
C=CCCC(=O)NCCc1ccc(S(=O)(=O)N2CCN(C3CCCCC3)C2=N)cc1 | 15 | 0.0069 | ED20 (Rattus norvegicus [4]): 0.36 mmol/kg
C=C(C)C(=O)NCCc1ccc(S(=O)(=O)N2CCN(C3CCCCC3)C2=N)cc1 | 220 | 0.024 | 
N=C1N(C2CCCCC2)CCN1S(=O)(=O)c1ccc(CCNC(=O)Nc2ccccc2)cc1 |  | 0.85 | 
COc1cccc(C(=O)NCCc2ccc(S(=O)(=O)N3CCN(C4CCCCC4)C3=N)cc2)c1 | 380 | 0.062 | ED20 (Rattus norvegicus [6]): 0.31 mmol/kg
N=C1N(C2CCCCC2)CCN1S(=O)(=O)c1ccc(CCNC(=O)CN)cc1 |  | 0.39 | ED20 (Rattus norvegicus [4]): 0.62 mmol/kg
N=C1N(C2CCCCC2)CCN1S(=O)(=O)c1ccc(CCNC(=O)c2cnccn2)cc1 | 480 | 0.12 | ED20 (Rattus norvegicus [7]): > 0.22 mmol/kg
CCCSCC(=O)NCCc1ccc(S(=O)(=O)N2CCN(C3CCCCC3)C2=N)cc1 | 550 | 0.1 | 
C=CC(=O)NCCc1ccc(S(=O)(=O)N2CCN(C3CCCCC3)C2=N)cc1 | 210 | 0.042 | 

Structure (SMILES) | ED50 (Rattus norvegicus [1]) [µmol/kg] | ED20 (Rattus norvegicus [2]) [mmol/kg] | further results
C=C(C(=O)NCCc1ccc(S(=O)(=O)N2CCN(C3CCCCC3)C2=N)cc1)c1ccccc1 | 48 | 0.014 | ED20 (Rattus norvegicus [4]): 0.96 mmol/kg
CC/N=C(\S)NCCc1ccc(S(=O)(=O)N2CCN(C3CCCCC3)C2=N)cc1 | 140 | 0.016 | 
CCCC/N=C(\S)NCCc1ccc(S(=O)(=O)N2CCN(C3CCCCC3)C2=N)cc1 | 210 | 0.015 | 
N=C1N(C2CCCCC2)CCN1S(=O)(=O)c1ccc(CCNC(=O)c2cncnc2)cc1 |  | 0.2 | ED20 (Rattus norvegicus [7]): > 0.59 mmol/kg; ED50 (Rattus norvegicus [5]): > 590 µmol/kg
C/C=C\C(=O)NCCc1ccc(S(=O)(=O)N2CCN(C3CCCCC3)C2=N)cc1 | 38 | 0.0038 | 
COc1ccc(C(=O)NCCc2ccc(S(=O)(=O)N3CCN(C4CCCCC4)C3=N)cc2)cc1 | 830 | 0.064 | 
CCCCNC(=O)NCCc1ccc(S(=O)(=O)N2CCN(C3CCCCC3)C2=N)cc1 | 330 | 0.067 | 
N=C1N(C2CCCCC2)CCN1S(=O)(=O)c1ccc(CCNC(=O)/C=C/c2ccccc2)cc1 |  | 0.11 | ED50 (Rattus norvegicus [5]): > 630 µmol/kg
CCC(CC)C(=O)NCCc1ccc(S(=O)(=O)N2CCN(C3CCCCC3)C2=N)cc1 |  | 0.098 | ED50 (Rattus norvegicus [5]): > 890 µmol/kg
CCCCOC(=O)NCCc1ccc(S(=O)(=O)N2CCN(C3CCCCC3)C2=N)cc1 | 890 | 0.079 | ED20 (Rattus norvegicus [4]): 0.89 mmol/kg
C/N=C(\S)NCCc1ccc(S(=O)(=O)N2CCN(C3CCCCC3)C2=N)cc1 | 240 | 0.031 | 
N=C1N(C2CCCCC2)CCN1S(=O)(=O)c1ccc(CCNC(=O)c2cccnc2)cc1 | 160 | 0.034 | ED20 (Rattus norvegicus [7]): > 0.22 mmol/kg
C[S+]([O-])CCC(=O)NCCc1ccc(S(=O)(=O)N2CCN(C3CCCCC3)C2=N)cc1 (stereo not drawn) | 200 | 0.056 | ED20 (Rattus norvegicus [4]): 0.86 mmol/kg
Cc1cc(C(=O)NCCc2ccc(S(=O)(=O)N3CCN(C4CCCCC4)C3=N)cc2)no1 | 130 | 0.022 | ED20 (Rattus norvegicus [4]): 0.14 mmol/kg
N=C1N(C2CCCCC2)CCN1S(=O)(=O)c1ccc(CCNC(=O)CNc2ccccc2)cc1 | 320 | 0.064 | ED20 (Rattus norvegicus [4]): 0.4 mmol/kg
CCC/C=C/C(=O)NCCc1ccc(S(=O)(=O)N2CCN(C3CCCCC3)C2=N)cc1 | 22 | 0.009 | ED20 (Rattus norvegicus [4]): 0.81 mmol/kg
CCOCC(=O)NCCc1ccc(S(=O)(=O)N2CCN(C3CCCCC3)C2=N)cc1 | 150 | 0.044 | 
CCCCCC/N=C(\S)NCCc1ccc(S(=O)(=O)N2CCN(C3CCCCC3)C2=N)cc1 |  | 0.3 | ED50 (Rattus norvegicus [5]): > 610 µmol/kg
CSCCC(=O)NCCc1ccc(S(=O)(=O)N2CCN(C3CCCCC3)C2=N)cc1 | 200 | 0.053 | 
N=C1N(C2CCCCC2)CCN1S(=O)(=O)c1ccc(CCNC=O)cc1 | 260 | 0.053 | 
CC(Nc1ccccc1)C(=O)NCCc1ccc(S(=O)(=O)N2CCN(C3CCCCC3)C2=N)cc1 (stereo not drawn) | 200 | 0.06 | ED20 (Rattus norvegicus [4]): 0.4 mmol/kg
CC(=O)NCCc1ccc(S(=O)(=O)N2CCN(C3CCCCC3)C2=N)cc1 | 240 | 0.038 | 
